Data on 3 compounds can be found in patent US8906416B2, “Xanthenedione derivatives for the treatment of pigmentation and skin ageing disorders” (Pierre Fabre Dermo-Cosmetique, priority 2010, dated 2014).

Assay [1] concerns Melanoderm-B (Black) reconstructed epidermis. The assay can be described thus: Reconstructed epidermis depigmenting activity, Melanoderm-B. Conditions: D3, D7, D10 and D14, 0.5% in Simplex formula. The class given is cell-based. The text has this:
(§1) The compounds of examples 8 and 21 were formulated at the concentration of 0.5% in a Simplex formula according to the example of composition A. Melanoderm-B (Black) or Melanoderm A (Asian) (MatTek, USA) reconstructed epidermis models were used. The reference compound chosen is kojic acid titrated to 2% in aqueous solution. The culture medium is changed every day. The products are applied by topical mode on the epidermis every two days. For the application, the epidermises are rinsed with PBS and the product to be tested is then applied. A preliminary toxicity study made it possible to determine that the dose to apply for each treatment is 25 μL. The tissues were observed on D3, D7, D10, D14 (Melanoderm B) or D6, D10, D14 and D21 (Melanoderm A) by 3 independent experts.

The next assay deals with B16-F10 cells. The assay can be described thus: Melanin assay test in B16-F10 cells. The class given is cell-based, murine. Conditions: Mus musculus, B16-F10; 0.1 μM α-MSH stimulated, 72 hours treatment; read-out: Results activity B16-F10 IC50 (50% melanin synthesis inhibition). The procedure:
This involves a test of measuring the synthesis of melanin by colorimetric assay on a murine melanoma cell line: the B16-F10 line. This test enables the depigmenting power of active ingredients to be evaluated.
The B16-F10 cells are cultured in 96-well plates in DMEM medium, supplemented with FCS (foetal calf serum), and incubated 24 hours at 37° C., 5% CO2. The cells are then stimulated with 0.1 μM α-MSH (to stimulate the synthesis of melanin, the stimulation observed is around 150%) and treated 72 hours with the active ingredients to be tested. Each concentration of active ingredient is tested at least in triplicate. The total melanin followed by the intracellular melanin dissolved in the lysis buffer are then assayed by absorbance reading at 405 nm. The total proteins are assayed in the lysate and the results are expressed in mg melanin/mg proteins. The percentage of activity is calculated as follows:
[formula] A negative value indicates an inhibition, whereas a positive value indicates an induction of the synthesis of melanin. General Experimental Conditions: • Equipment: • CO2 cell incubator (Heraeus), Oven, Centrifuge (Heraeus), Laminar air flow fume hood, 96-well clear bottomed plates—Falcon, sterile cones—Treff Lab, Polylabo, Mithras LB940 (Berthold Technologies)-154/MIPA/003 Biological Equipment: • B16-F10 cell line between P10 and P20 (murine melanocytes) (ATCC, CRL-6475) • Reagents • DMEM without phenol red (GIBCOBRL, 31053-028), 200 mM Glutamax-I Supplement (GIBCOBRL, 35050-038), D-PBS (GIBCOBRL, 14190-094), Foetal calf serum (Invitrogen, 10270-098), Trypsine-EDTA (GIBCOBRL, 25300-054), NaOH (Sigma, S8045-500G), DMSO (Sigma, 471267-1L), Nle, Phe—Melanocyte Stimulating Hormone (Sigma, M-8764), Melanin (Sigma, M-0418), BCA-COPPER (SIGMA, B9643 AND C2284), BSA (SIGMA, P0914) B) Test for the Study of the Antioxidant Capacity by Chemiluminescence (Photochem Analytik Jena) Principle: […]

Assay [2] concerns Melanoderm A (Asian) reconstructed epidermis. The assay can be described thus: Reconstructed epidermis depigmenting activity, Melanoderm A. In kind it is cell-based.
From the text: as §1, with “experts. The formula containing example 8 was also tested in a Melanoderm-A (Asian) model. The coloration of the epidermis is compared to that of the simplex control formula.” for “experts.”

For assay [3] the following is noted: reference products of the interpretation scale; cited from earlier work.

One may read the IC50 as the concentration that inhibits the measured activity by half. Regarding `COc1cc(C2C3=C(CC(C)(C)CC3=O)OC3=C2C(=O)CC(C)(C)C3)ccc1O[C@@H]1OC(CO)[C@@H](O)C(O)C1O` (stereo in doubt) [Example 21, 9-(3-methoxy-4-((3S,4 S,5S)-3,4,5-trihydroxy-6-(hydroxymethyl)tetrahydro-2H-pyran-2-yloxy)phenyl)-3,3,6,6-tetramethyl-3,4,5,6,7,9-hexahydro-1H-xanthene-1,8(2H)-dione], in assay [1], the “Coloration of the epidermis compared to negative control (water)” value is recorded as “macroscopic depigmenting effect”. Also, in the assay with B16-F10 cells, the IC50 was found to be 69 µM.
In the case of `CCCCCCCCCCCCCCCC(=O)Oc1ccc(C2C3=C(CC(C)(C)CC3=O)OC3=C2C(=O)CC(C)(C)C3)cc1OC` [Example 8, 2-methoxy-4-(3,3,6,6-tetramethyl-1,8-dioxo-2,3,4,5,6,7,8,9-octahydro-1H-xanthen-9-yl)phenyl palmitate], in assay [1], the “Coloration of the epidermis compared to negative control (water)” value is “macroscopic depigmenting effect”. The “Melanin assay: reduction of melanin with respect to epidermises treated by the Simplex control formula” value in assay [2] (0.5% in Simplex formula) was found to be 4.1 µg. For the same compound, the “Coloration of the epidermis compared to the simplex control formula” value in assay [2] (D6, D10, D14, D21, 0.5% in Simplex formula) is reported as “macroscopic depigmenting effect”.
`O=C1O[C@H]([C@@H](O)CO)C(O)=C1O` [Vitamin C]: in assay [3], the “Activity (scale for interpreting the results)” value is on record as “Very good” and the “μg sample for 1 μg of Trolox (scale for interpreting the results)” value is listed as 0.1 to 3.0 μg sample for 1 μg of Trolox.
